The source of these data is patent publication US8614203B2, “Methods for the treatment of a central nervous system injury via a tapered administration protocol” (Emory University, priority 2005, dated 2013).

For test [1], the system named is bilateral contusions of the medial prefrontal cortex. As to the kind of experiment: Example 1: cell counts of Nissl-stained neurons (STR, GP, DMN, VMN) after TBI. It counts as in vivo, Sprague-Dawley rats. The note with it: 4 mg/kg in peanut oil. Here is the method:
Male Sprague-Dawley rats (300 g) were housed individually in wire cages and kept on a reverse light-dark cycle (0800-2000 h). […] All procedures involving animals conformed to guidelines set forth in the Guide for the Care and Use of Laboratory Animals (U.S. Department of Health and Human Services, Pub no. 85-23, 1985) and were approved by the Emory University Institutional Animal Care and Use Committee.
Bilateral contusions of the medial prefrontal cortex were created by a pneumatic impactor device as previously described. Briefly, rats were given anesthetized with ketamine/xylazine (90 mg/kg; 10 mg/kg) and placed in a stereotaxic apparatus. A craniectomy (diameter 6 mm) was made over the midline of the prefrontal cortex with its center 1.5 mm AP to bregma. After removal of the bone, the tip of the impactor (diameter 5 mm) was moved to +3.0 mm AP; 1.0 mm ML (from bregma), and checked for adequate clearance. Trauma was produced by pneumatically activating the piston to impact −2.0 mm DV (from dura) at a velocity of 3 m/s with a brain contact time of 0.5 seconds. […]
Cell counts were done on an Olympus BH-2 microscope equipped with an eyepiece micrometer grid (sample area=40 um^2 at ×400 magnification). […] Only cells with neuronal nuclei and intact membranes were counted as neurons.
Experienced individuals who were blind to treatment conditions of the study conducted all histological and behavioral analyses. All data were tested for normality and homoschedasticity before being analyzed by parametric analysis of variance (ANOVA). MWM results were analyzed using separate mixed-factorial (4 groups×5 days) analysis of variance (ANOVA) on each of the two 5-day testing periods (acquisition and retention respectively). Results of the BSN task were analyzed using the mixed-factorial ANOVA (4 groups×2 post-injury trials). […] Pearson r coefficients were calculated to determine whether significant correlations could be detected between histological (e.g., lesion size and cellular density) and behavioral parameters (e.g., acquisition and retention of the MWM task and measures of sensory neglect).

Test [2] relates to BDNF. As to the kind of experiment: Example 3: Western blot of brain tissue, BDNF. It counts as in vivo, Sprague-Dawley rats. The note with it: TWI vs AWI vs VI, 3 weeks post-injury. Here is the method: Male Sprague-Dawley rats received either medial frontal cortex injury or sham surgery. Injections were given 1 and 6 hours post-injury, and every 24 hours for 7 days. Treatment groups (n=8) encompassed injured (I) and sham (S) acute withdrawal (AW), tapered withdrawal (TW) and vehicle (V) treatments. TW injections were progressively halved over the final two treatments. Behavioral testing was conducted post-surgery, mid- and post-withdrawal. Activity boxes were used to investigate vertical movements and exploration: Sensory neglect and anxiety behaviors were also analyzed. Brain harvesting was performed at 8 days or 3 weeks post-injury. Perfused tissue sections were analyzed for lesion volume and immunohistochemical response. Fresh brain tissue was flash frozen in chilled 2-methyl butane, and then homogenized for Western blot analysis.

The subject of test [3] is GFAP. It counts as in vivo. The note with it: acute withdrawal, lesion (AWL) vs VL; three weeks post-injury. The source says:
60 male Sprague-Dawley rats weighing 290-310 g at the time of injury were used in this experiment. Food and water were provided ad libidum before and after surgery. Animals were handled and weighed daily from their arrival, seven days pre-surgery, to brain extraction three weeks post-surgery. Animals were handled in squads of 12, with n=10 per experimental condition. All animal procedures were approved by the Emory University Animal Care and Use Committee, Protocol #131-2002.
Isofluorane anesthesia was induced for four minutes and 45 seconds at 5% and maintained at 2.5%. Normal body temperature was maintained with a surgical heating pad placed beneath the sterile dressings. The scalp incision area was shaved and sterilized with iodine and isopropanol. A midline incision was made along the scalp and the fascia cleared to expose the surface of the skull. Medial, lateral, and dorsal stereotaxic coordinates were determined at bregma, and a 5-7 mm diameter bilateral craniotomy was performed mid-sagitally, 3 mm anterior to bregma. […]
All animals were decapitated following a lethal 1 mL injection of Nembutal at three weeks post-injury. […] Thionin-stained sections from 4.2-2.2 mm anterior to bregma were identified and analyzed for lesion area using Kodak ID software. Total brain area was determined by determined by normalizing to the volume of sham brain sections. […]

Turning to `CC(=O)[C@H]1CC[C@H]2[C@@H]3CCC4=CC(=O)CC[C@]4(C)[C@H]3CC[C@]12C` [progesterone, pregn-4-ene-3,20-dione], the “injury-induced neuronal loss (mean cellular density STR, GP, DMN, VMN)” value in test [1] (3 days (LP3)) and in test [1] (5 days (LP5)) was “significant reduction of injury-induced neuronal loss in all brain regions examined” in each case. Further, the “neuronal loss in the VMN, 5 days vs 3 days of treatment” value in test [1] (5 days compared with 3 days) is reported as “more effective than 3 days at attenuating neuronal loss in the VMN”. The BDNF expression entry in test [2] is listed as “increased for TWI over AWI over VI at 3 weeks post-injury”. The “GFAP immunofluorescence luminosity (reactive astrocytes)” value in test [3] is on record as “upregulated in VL (A) animals over AWL (B) animals”.
